Values quoted from earlier work in patent US20230157980A1, “METHODS FOR TREATING HEARING LOSS INCIDENT TO COCHLEAR IMPLANT SURGERY” (HOUGH EAR INSTITUTE, priority 2018, published 2023).

System: hearing loss caused by cochlear implantation

CC(=O)N[C@@H](CS)C(=O)O [NAC, N-acetylcysteine]
hearing improvement (local NAC, 32 kHz, 4-week post insertion time point): barely significant hearing improvement | protective effect on hearing (local NAC, lower frequencies (below 32 kHz)): no protective effect | effect on improving hearing (local administration of NAC): only modest and transient effects
